Assay results: patent US6472395B1, “Agent for use in transplantation” (Leif J. I. Lundblad, priority 1999, dated 2002)
Entries after “also recorded” stand apart in the source; their conditions may differ.

Key:
rat livers [1] = assay: Ischemia/reperfusion in rat liver perfusion system, removal of lactate, comparison with known protective compounds; conditions: 5 mg added to the perfusate before ischemia; FIG. 3
Experimental: A third experiment was carried out, wherein rat livers were taken out and were subjected to perfusion in a heart/lung machine. The perfusion solution is blood with an implanted liver. When the system has reached equilibrium the perfusion flow is shut off and 10 to 20 minutes later the perfusion flow is turned on again, which is called reperfusion (ischemia). A known toxic effect of reperfusion (ischemia/infarction)(tissue damage due to oxidative stress) is the reduced capacity to remove lactate from the perfusate.

rat liver [2] = assay: Donor pretreatment, liver stored 24 h at +4° C. then isolated perfusion, bile flow and lactate; assay type: in vivo; conditions: pretreatment of B220 to the donor
Experimental: The same experiment was repeated but instead the temperature applied during transport of human livers(+4° C.) was used. The livers were stored for 24 h before installation in the perfusion system. This should be compared to 12 h which is the maximum for human liver transplantation. […] The experiment was identical to what is shown in FIG. 6 except for time and temperature used.

rat livers [3] = assay: Reperfusion (10 min shut-off) of rat liver in heart/lung machine, lactate and bile flow over time; conditions: 2 mg B220 in the system, FIG. 4 lower diagram
Experimental: (§1) A series of experiments were carried out with rat livers in a heart/lung machine (FIGS. 4 and 5).
(§2) Lactate was added to a control liver perfusion and the bile flow and the lactate level were measured as a function of time. Bile flow is the clinical parameter for liver function, the higher bile flow the better liver function. The results from controls are shown in the upper diagrams of FIGS. 4 and 5. A normal liver down-regulates the lactate very rapidly to in vivo levels (3-5 mM). The normal bile flow in controls is represented by the dotted line.
In the next experiment a heart/lung machine was shut off for 10 minutes and then it was started again to induce oxidative stress (reperfusion). The amount of lactate, which is a measurement of tissue damage, was determined as a function of time and the bile flow as a function of time was also determined as an indicator of toxic effect. The results are shown in FIG. 4, middle diagram, indicating a high level of lactate (solid curve) and a reduced bile flow (dotted curve) after reperfusion. Both these effects are markers for tissue damage.
In the next experiment the same reperfusion experiment was carried out with B220 present in the system in an amount of 2 mg.

[4] = Toxicity in vivo (general statement)
rat liver [5] = assay: Donor pretreatment, liver stored 2 h at +30° C. then isolated perfusion, total bile flow; assay type: in vivo; conditions: single dose B220 i.p. to donor 24 h prior to surgery; liver 2 h at +30° C.; FIG. 6
Experimental: In a further experiment rat liver was tested in isolated perfusion where B220 was administered to the donor. The donors were administered a single dose of B220 24 h before the livers were surgically removed and kept at +30° C. for 2 h before set into perfusion (group 3). (There was a “short” storage (2 h) of rat liver at a high temperature (+30° C.) in order to simulate transplantation). The second group was not administered B220 and the first group was controls directly set into perfusion. […] “Transport” and reperfusion gives a massive oxidative stress which leads to tissue damage.
In FIG. 6 the total bile flow was an indicator of tissue damage induced by transplantation. The controls were directly “transplanted” to the perfusion system while the second group of livers was kept for 2 h at 30° C. before “transplantation”. The third group represents the 2 h at 30° C. treatment but with addition of B220 to the donors.

rat livers [6] = assay: TPA toxicity in rat liver perfusion, lactate and bile flow
Experimental: as §1, §2
In the next experiment (FIG. 5) a very toxic compound, triphorbolester (TPA) was added to the perfusion fluid. TPA is an inducer of inflammation and a very potent tumour promoter.
Then the same experiment was repeated under the same conditions except that 2 mg B220 also was added to the perfusion. From said results it can be seen that when B220 is present in the system the toxic effects of TPA were prevented and the values of lactate and bile flow were restored (and even better as compared to the controls in FIG. 5, upper diagram). […] The mode of action resides in a blocking of hyperplasia/inflammation.

[7] = Long time in vivo experiments on tumour promoter effect of TPA
rats = assay: In vivo test of rats with 2,7-dNF, livers analysed for 8-OH-dG; design: species or system rat; conditions: oral in corn oil, B220 at −48 h, −24 h and +6 h relative to 2,7-dNF dose; FIG. 2
Experimental: In another experiment rats were tested in vivo and the livers analyzed for 8-OH-dG. In this experiment there were three test groups. One control group, one group to which 2,7-dinitrofluorene (2,7-dNF), which is a well-known carcinogen found in diesel exhaust and inducer of 8-OH-dG, was orally administered and one group to which both 2,7-dNF and a compound to be used as an agent according to the present invention (B220) were administered. B220 was administered at three time points in relation to the 2,7-dNF dose, viz. −48 h, −24 h and +6 h. All doses were administered orally with the substance in corn oil. Control only received carrier. Oxidation of DNA (oxidation of guanine, 8-OH-dG) was measured in the liver. 8-OH-dG is a promutagenic event correlated to several different types of diseases, for instance cancer, diabetes and infectious diseases.
The results of the experiment can be seen from the enclosed FIG. 2.

[8] = 2 mg B220 added together with TPA, FIG. 5 lower diagram
[9] = TPA alone added to the perfusion fluid, FIG. 5 middle diagram

## CC(=O)Oc1ccccc1C(=O)O [ASA, acetyl salicylic acid]
Rat livers [1]
  reduction of lactate in perfusate after ischemia (protection): did not give any protective effects

## Cc1cc2nc3c4ccccc4n(CCN(C)C)c3nc2cc1C [B220]
Rat liver [2]; FIG. 7
  bile flow: the bile flow was restored
Rat liver [2]; FIG. 8
  lactate levels: same protective effect on lactate levels
Rat livers [3]
  bile flow as a function of time after reperfusion: rapidly accommodate to normal values; also recorded: better than in the controls
  lactate amount as a function of time after reperfusion: rapidly accommodate to normal values; also recorded: better than in the controls
[4]
  toxicity: practically non-toxic
Rat liver [5]
  total bile flow during the perfusion: the toxic effects are eliminated; also recorded: completely restored the bile flow value to that of the control samples
Rat livers [6]; [8]
  bile flow with TPA in perfusion: restored
  lactate with TPA in perfusion: restored
Rat livers [1]
  reduction of lactate in perfusate after ischemia (protection): significant reduction of lactate; also recorded: statistically significant protection
[7]
  tumour promoter effect of TPA: can stop the very potent tumour promoter effect of TPA
rats
  8-OH-dG in the liver (oxidation of DNA): protects against 2,7-dNF-induced formation of 8-OH-dG; also recorded: reduces 8-OH-dG to below the control values

## C[S+](C)[O-] [DMSO, dimethylsulphoxide, reference compound]
Liver from rat
  8-OH-dG in the liver: significant increase of 8-OH-dG

## CCCCCCCCCCCCCC(=O)O[C@@H]1[C@@H](C)[C@@]2(O)[C@@H](C=C(CO)C[C@]3(O)C(=O)C(C)=C[C@@H]23)[C@@H]2C(C)(C)[C@]12OC(C)=O [TPA, triphorbolester, reference compound]
Rat livers [6]; [9]
  capacity to produce bile: very restricted capacity to produce bile
  capacity to reduce lactate: very limited capacity to reduce lactate
